Measurements: patent US20240124442A1, “TRICYCLIC-AMIDO-BICYCLIC PRMT5 INHIBITORS” (AMGEN INC., priority 2021, published 2024)

Tests used:
HCT116 MTAP null cells = test: HCT116 MTAP null cell line proliferation / cell viability (CellTiter-Glo, 6 days); assay type: cell-based; settings: 144 h; HCT116 MTAP null cells, 6 days treatment, CellTiter-Glo cell viability; read-out: HCT-116 MTAP null IC50
Summary of the method: (§1)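 Anti-proliferative IC50s were derived from CellTiter-Glo signal in HCT116 parent and MTAP-null cells after six days on compound. Serial dilutions reached top concentrations of 1, 10 or 50 μM, with DMSO-only wells as control.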

HCT116 WT cells = test: HCT116 WT (parent) cell line proliferation / cell viability (CellTiter-Glo, 6 days); assay type: cell-based; settings: Homo sapiens, HCT-116, 144 h, 6 days treatment
Summary of the method: as §1

IC50 (HCT116 MTAP null cells) | IC50 (HCT116 WT cells) | Structure (SMILES)
0.009 µM | 0.613 µM | CN(C(=O)c1ccc2nc(N)c3cnn(C)c3c2c1)[C@@H]1COc2cc(-c3cscn3)ccc21 [Example 635, 4-amino-N,1-dimethyl-N-((3S)-6-(1,3-thiazol-4-yl)-2,3-dihydro-1-benzofuran-3-yl)-1H-pyrazolo[4,3-c]quinoline-8-carboxamide]
0.013 µM | 1.95 µM | Cc1ncc(-c2ccc3c(c2)OC[C@H]3N(C)C(=O)c2ccc3nc(N)c4cnn(C)c4c3c2)cn1 [Example 636, 4-amino-N,1-dimethyl-N-((3S)-6-(2-methyl-5-pyrimidinyl)-2,3-dihydro-1-benzofuran-3-yl)-1H-pyrazolo[4,3-c]quinoline-8-carboxamide]
0.339 µM | 32.1 µM | CN(C(=O)c1ccc2nc(N)c3cnn(C)c3c2c1)[C@@H]1COc2cc(-c3cnc(=O)[nH]c3)ccc21 [Example 637, 4-amino-N,1-dimethyl-N-((3S)-6-(2-oxo-1,2-dihydro-5-pyrimidinyl)-2,3-dihydro-1-benzofuran-3-yl)-1H-pyrazolo[4,3-c]quinoline-8-carboxamide]
0.006 µM | 0.591 µM | CN(C(=O)c1ccc2nc(N)c3cnn(C)c3c2c1)[C@@H]1COc2cc(-c3ccc(F)nc3)ccc21 [Example 638, 4-amino-N-((3S)-6-(6-fluoro-3-pyridinyl)-2,3-dihydro-1-benzofuran-3-yl)-N,1-dimethyl-1H-pyrazolo[4,3-c]quinoline-8-carboxamide]
0.015 µM | 1.4 µM | CCn1cc(-c2ccc3c(c2)OC[C@H]3N(C)C(=O)c2ccc3nc(N)c4cnn(C)c4c3c2)cn1 [Example 639, 4-amino-N-((3S)-6-(1-ethyl-1H-pyrazol-4-yl)-2,3-dihydro-1-benzofuran-3-yl)-N,1-dimethyl-1H-pyrazolo[4,3-c]quinoline-8-carboxamide]
0.016 µM | 2.05 µM | CN(C(=O)c1ccc2nc(N)c3cnn(C)c3c2c1)[C@@H]1COc2cc(-c3cnn(C4CC4)c3)ccc21 [Example 640, 4-amino-N-((3S)-6-(1-cyclopropyl-1H-pyrazol-4-yl)-2,3-dihydro-1-benzofuran-3-yl)-N,1-dimethyl-1H-pyrazolo[4,3-c]quinoline-8-carboxamide]
0.042 µM | 1.6 µM | CN(C(=O)c1ccc2nc(N)c3cnn(C)c3c2c1)[C@@H]1COc2cc(-c3cc(F)cc(F)c3)ccc21 [Example 641, 4-amino-N-((3S)-6-(3,5-difluorophenyl)-2,3-dihydro-1-benzofuran-3-yl)-N,1-dimethyl-1H-pyrazolo[4,3-c]quinoline-8-carboxamide]
0.005 µM | 0.535 µM | CN(C(=O)c1ccc2nc(N)c3cnn(C)c3c2c1)[C@@H]1COc2cc(-c3ccc(F)nc3F)ccc21 [Example 642, 4-amino-N-((3S)-6-(2,6-difluoro-3-pyridinyl)-2,3-dihydro-1-benzofuran-3-yl)-N,1-dimethyl-1H-pyrazolo[4,3-c]quinoline-8-carboxamide]
0.005 µM | 0.228 µM | CN(C(=O)c1ccc2nc(N)c3cnn(C)c3c2c1)[C@@H]1COc2cc(-c3ccnc(F)c3F)ccc21 [Example 643, 4-amino-N-((3S)-6-(2,3-difluoro-4-pyridinyl)-2,3-dihydro-1-benzofuran-3-yl)-N,1-dimethyl-1H-pyrazolo[4,3-c]quinoline-8-carboxamide]
0.027 µM | 3.56 µM | CN(C(=O)c1ccc2nc(N)c3cnn(C)c3c2c1)[C@@H]1COc2cc(-c3cnc4c(c3)CC(=O)N4)ccc21 [Example 644, 4-amino-N,1-dimethyl-N-((3S)-6-(2-oxo-2,3-dihydro-1H-pyrrolo[2,3-b]pyridin-5-yl)-2,3-dihydro-1-benzofuran-3-yl)-1H-pyrazolo[4,3-c]quinoline-8-carboxamide]
0.024 µM | 1.47 µM | CN(C(=O)c1ccc2nc(N)c3cnn(C)c3c2c1)[C@@H]1COc2cc(-c3cc(C(F)(F)F)[nH]n3)ccc21 [Example 645, 4-amino-N,1-dimethyl-N-((3S)-6-(5-(trifluoromethyl)-1H-pyrazol-3-yl)-2,3-dihydro-1-benzofuran-3-yl)-1H-pyrazolo[4,3-c]quinoline-8-carboxamide]
0.003 µM | 0.329 µM | CNC(=O)c1ccc(-c2ccc3c(c2)OC[C@H]3N(C)C(=O)c2ccc3nc(N)c4cnn(C)c4c3c2)cn1 [Example 646, 4-amino-N,1-dimethyl-N-((3S)-6-(6-(methylcarbamoyl)-3-pyridinyl)-2,3-dihydro-1-benzofuran-3-yl)-1H-pyrazolo[4,3-c]quinoline-8-carboxamide]
0.008 µM | 0.582 µM | CC(=O)Nc1ccc(-c2ccc3c(c2)OC[C@H]3N(C)C(=O)c2ccc3nc(N)c4cnn(C)c4c3c2)cn1 [Example 647, N-((3S)-6-(6-acetamido-3-pyridinyl)-2,3-dihydro-1-benzofuran-3-yl)-4-amino-N,1-dimethyl-1H-pyrazolo[4,3-c]quinoline-8-carboxamide]
0.03 µM | 1.17 µM | CN(C(=O)c1ccc2nc(N)c3cnn(C)c3c2c1)[C@@H]1COc2cc(-c3cccc(C(F)(F)F)n3)ccc21 [Example 648, 4-amino-N,1-dimethyl-N-((3S)-6-(6-(trifluoromethyl)-2-pyridinyl)-2,3-dihydro-1-benzofuran-3-yl)-1H-pyrazolo[4,3-c]quinoline-8-carboxamide]
0.018 µM | 1.04 µM | CN(C(=O)c1ccc2nc(N)c3cnn(C)c3c2c1)[C@@H]1COc2cc(-c3cccnc3C(F)(F)F)ccc21 [Example 649, 4-amino-N,1-dimethyl-N-((3S)-6-(2-(trifluoromethyl)-3-pyridinyl)-2,3-dihydro-1-benzofuran-3-yl)-1H-pyrazolo[4,3-c]quinoline-8-carboxamide]
0.008 µM | 0.447 µM | CN(C(=O)c1ccc2nc(N)c3cnn(C)c3c2c1)[C@@H]1COc2cc(-c3cnccc3C(F)(F)F)ccc21 [Example 650, 4-amino-N,1-dimethyl-N-((3S)-6-(4-(trifluoromethyl)-3-pyridinyl)-2,3-dihydro-1-benzofuran-3-yl)-1H-pyrazolo[4,3-c]quinoline-8-carboxamide]
0.007 µM | 0.724 µM | CN(C(=O)c1ccc2nc(N)c3cnn(C)c3c2c1)[C@@H]1COc2cc(-c3cncc(C(F)(F)F)c3)ccc21 [Example 651, 4-amino-N,1-dimethyl-N-((3S)-6-(5-(trifluoromethyl)-3-pyridinyl)-2,3-dihydro-1-benzofuran-3-yl)-1H-pyrazolo[4,3-c]quinoline-8-carboxamide]
0.006 µM | 0.291 µM | CN(C(=O)c1ccc2nc(N)c3cnn(C)c3c2c1)[C@@H]1COc2cc(-c3ccc(C(F)(F)F)cn3)ccc21 [Example 652, 4-amino-N,1-dimethyl-N-((3S)-6-(5-(trifluoromethyl)-2-pyridinyl)-2,3-dihydro-1-benzofuran-3-yl)-1H-pyrazolo[4,3-c]quinoline-8-carboxamide]
0.019 µM | 0.735 µM | CN(C(=O)c1ccc2nc(N)c3cnn(C)c3c2c1)[C@@H]1COc2cc(-c3c(C(F)(F)F)cnn3C)ccc21 [Example 653, 4-amino-N,1-dimethyl-N-((3S)-6-(1-methyl-4-(trifluoromethyl)-1H-pyrazol-5-yl)-2,3-dihydro-1-benzofuran-3-yl)-1H-pyrazolo[4,3-c]quinoline-8-carboxamide]
0.01 µM | 1 µM | CN(C(=O)c1ccc2nc(N)c3cnn(C)c3c2c1)[C@@H]1COc2cc(-c3cc(C(F)(F)F)nn3C)ccc21 [Example 654, 4-amino-N,1-dimethyl-N-((3S)-6-(1-methyl-3-(trifluoromethyl)-1H-pyrazol-5-yl)-2,3-dihydro-1-benzofuran-3-yl)-1H-pyrazolo[4,3-c]quinoline-8-carboxamide]
0.028 µM | 0.946 µM | CN(C(=O)c1ccc2nc(N)c3cnn(C)c3c2c1)[C@@H]1COc2cc(-c3csc(C(F)(F)F)n3)ccc21 [Example 655, 4-amino-N,1-dimethyl-N-((3S)-6-(2-(trifluoromethyl)-1,3-thiazol-4-yl)-2,3-dihydro-1-benzofuran-3-yl)-1H-pyrazolo[4,3-c]quinoline-8-carboxamide]
0.006 µM | 0.511 µM | CN(C(=O)c1ccc2nc(N)c3cnn(C)c3c2c1)[C@@H]1COc2cc(-c3cnc(C(F)(F)F)s3)ccc21 [Example 656, 4-amino-N,1-dimethyl-N-((3S)-6-(2-(trifluoromethyl)-1,3-thiazol-5-yl)-2,3-dihydro-1-benzofuran-3-yl)-1H-pyrazolo[4,3-c]quinoline-8-carboxamide]
0.037 µM | 1.71 µM | CN(C(=O)c1ccc2nc(N)c3cnn(C)c3c2c1)[C@@H]1COc2cc(-c3ccc4c(c3)OC(F)(F)O4)ccc21 [Example 657, 4-amino-N-((3S)-6-(2,2-difluoro-1,3-benzodioxol-5-yl)-2,3-dihydro-1-benzofuran-3-yl)-N,1-dimethyl-1H-pyrazolo[4,3-c]quinoline-8-carboxamide]
0.042 µM | 0.63 µM | CN(C(=O)c1ccc2nc(N)c3cnn(C)c3c2c1)[C@@H]1COc2cc(-c3ccc(OC(F)(F)F)cc3)ccc21 [Example 658, 4-amino-N,1-dimethyl-N-((3S)-6-(4-(trifluoromethoxy)phenyl)-2,3-dihydro-1-benzofuran-3-yl)-1H-pyrazolo[4,3-c]quinoline-8-carboxamide]
0.025 µM | 1.28 µM | CN(C(=O)c1ccc2nc(N)c3cnn(C)c3c2c1)[C@@H]1COc2cc(-c3cc(F)cc(OC(F)F)c3)ccc21 [Example 659, 4-amino-N-((3S)-6-(3-(difluoromethoxy)-5-fluorophenyl)-2,3-dihydro-1-benzofuran-3-yl)-N,1-dimethyl-1H-pyrazolo[4,3-c]quinoline-8-carboxamide]
